How the values were obtained:
Format in all cases: in vivo
[1] = tested on: lambsquarters (Chenopodium album, CHEAL); experiment: Pre-emerge greenhouse herbicide test, phytotoxicity rating; conditions: Chenopodium album, pre-emergence, 336 h, 14 days after application, rating scale 0-100; for pest or weed control at 125 g/ha: Rate 125 g al/ha; for pest or weed control at 500 g/ha: Rate 500 g al/ha
Outline: (§1)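 Seeds sown in sandy loam mix one day before track-sprayer application of compounds in acetone at 125–1000 g ai/ha (187 l/ha), then surface-watered to incorporate and bottom-watered. Visual rating 14 days after application on a 0–100 scale (0 = no damage, 100 = all plants dead).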

[2] = tested on: sicklepod (Cassia obtusifolia, CASOB); experiment: as above; conditions: Senna obtusifolia, pre-emergence, 336 h, 14 days after application, rating scale 0-100; for pest or weed control at 125 g/ha: Rate 125 g al/ha; for pest or weed control at 500 g/ha: Rate 500 g al/ha
Outline: as §1

[3] = tested on: Johnsongrass (Sorghum halepense, SORHA); experiment: as above; conditions: Sorghum halepense, pre-emergence, 336 h, 14 days after application, rating scale 0-100; for pest or weed control at 125 g/ha: Rate 125 g al/ha; for pest or weed control at 500 g/ha: Rate 500 g al/ha
Outline: as §1

[4] = tested on: velvetleaf (Abutilon theophrasti, ABUTH); experiment: as above; conditions: Abutilon theophrasti, pre-emergence, 336 h, 14 days after application, rating scale 0-100; for pest or weed control at 125 g/ha: Rate 125 g al/ha; for pest or weed control at 500 g/ha: Rate 500 g al/ha
Outline: as §1

[5] = tested on: green foxtail (Setaria viridis, SETVI); experiment: as above; conditions: Setaria viridis, pre-emergence, 336 h, 14 days after application, rating scale 0-100; for pest or weed control at 125 g/ha: Rate 125 g al/ha; for pest or weed control at 500 g/ha: Rate 500 g al/ha
Outline: as §1

[6] = tested on: ivyleaf morningglory (Ipomoea hederacea, IPOHE); experiment: as above; conditions: Ipomoea, pre-emergence, 336 h, 14 days after application, rating scale 0-100; for pest or weed control at 125 g/ha: Rate 125 g al/ha; for pest or weed control at 500 g/ha: Rate 500 g al/ha
Outline: as §1

[7] = tested on: lambsquarters (Chenopodium album, CHEAL); experiment: Post-emerge greenhouse herbicide test, phytotoxicity rating; conditions: Chenopodium album, post-emergence, 336 h, 14 days after application, scale 0-100; for pest or weed control at 63 g/ha: rate 63 g ai/ha; for pest or weed control at 500 g/ha: rate 500 g ai/ha
Outline: (§2)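 Compounds in acetone with 0.25% v/v non-ionic surfactant were track-sprayed at 187 l/ha over plants at the 2-3 leaf stage, at 63 to 1000 g ai/ha. Pots were bottom-watered. Injury was scored visually 14 days later on a 0-100 scale, where 0 is no damage and 100 is complete plant death.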

[8] = tested on: sicklepod (Cassia obtusifolia, CASOB); experiment: as above; conditions: Senna obtusifolia, post-emergence, 336 h, 14 days after application, scale 0-100; for pest or weed control at 63 g/ha: rate 63 g ai/ha; for pest or weed control at 500 g/ha: rate 500 g ai/ha
Outline: as §2

[9] = tested on: large crabgrass (Digitaria sanguinalis, DIGSA); experiment: as above; conditions: Digitaria sanguinalis, post-emergence, 336 h, 14 days after application, scale 0-100; for pest or weed control at 63 g/ha: rate 63 g ai/ha; for pest or weed control at 500 g/ha: rate 500 g ai/ha
Outline: as §2

[10] = tested on: Johnsongrass (Sorghum halepense, SORHA); experiment: as above; conditions: Sorghum halepense, post-emergence, 336 h, 14 days after application, scale 0-100; for pest or weed control at 63 g/ha: rate 63 g ai/ha; for pest or weed control at 500 g/ha: rate 500 g ai/ha
Outline: as §2

[11] = tested on: redroot pigweed (Amaranthus retroflexus, AMARE); experiment: as above; conditions: Amaranthus retroflexus, post-emergence, 336 h, 14 days after application, scale 0-100; for pest or weed control at 63 g/ha: rate 63 g ai/ha; for pest or weed control at 500 g/ha: rate 500 g ai/ha
Outline: as §2

[12] = tested on: velvetleaf (Abutilon theophrasti, ABUTH); experiment: as above; conditions: Abutilon theophrasti, post-emergence, 336 h, 14 days after application, scale 0-100; for pest or weed control at 63 g/ha: rate 63 g ai/ha; for pest or weed control at 500 g/ha: rate 500 g ai/ha
Outline: as §2

[13] = tested on: green foxtail (Setaria viridis, SETVI); experiment: as above; conditions: Setaria viridis, post-emergence, 336 h, 14 days after application, scale 0-100; for pest or weed control at 63 g/ha: rate 63 g ai/ha; for pest or weed control at 500 g/ha: rate 500 g ai/ha
Outline: as §2

[14] = tested on: ivyleaf morningglory (Ipomoea hederacea, IPOHE); experiment: as above; conditions: Ipomoea, post-emergence, 336 h, 14 days after application, scale 0-100; for pest or weed control at 63 g/ha: rate 63 g ai/ha; for pest or weed control at 500 g/ha: rate 500 g ai/ha
Outline: as §2

[15] = tested on: barnyardgrass (Echinochloa crusgalli, ECHCG); experiment: as above; conditions: Echinochloa crus-galli, post-emergence, 336 h, 14 days after application, scale 0-100; for pest or weed control at 63 g/ha: rate 63 g ai/ha; for pest or weed control at 500 g/ha: rate 500 g ai/ha
Outline: as §2

Row | Structure (SMILES) | pest or weed control at 125 g/ha [1] | pest or weed control at 500 g/ha [1] | pest or weed control at 125 g/ha [2] | pest or weed control at 500 g/ha [2] | pest or weed control at 125 g/ha [3] | pest or weed control at 500 g/ha [3] | pest or weed control at 125 g/ha [4] | pest or weed control at 500 g/ha [4] | pest or weed control at 125 g/ha [5] | pest or weed control at 500 g/ha [5] | pest or weed control at 125 g/ha [6] | pest or weed control at 500 g/ha [6] | pest or weed control at 63 g/ha [7] | pest or weed control at 500 g/ha [7] | pest or weed control at 63 g/ha [8] | pest or weed control at 500 g/ha [8] | pest or weed control at 63 g/ha [9] | pest or weed control at 500 g/ha [9] | pest or weed control at 63 g/ha [10] | pest or weed control at 500 g/ha [10] | other results
1 | Nn1c(C(F)(F)F)cc(=S)n(-c2cc(Oc3ccc(Cl)cn3)c(Cl)cc2F)c1=O [Compound 9-28, 1-amino-3-[4-chloro-2-fluoro-5-(5-chloro-2-pyridyloxy)phenyl]-6-trifluoromethyl-1,2,3,4tetrahydro-2-oxo-4-thioxopyrimidine] | 100% | 100% | 50% | 50% | 20% | 80% | 100% | 100% | 100% | 100% | 40% | 70% | 80% | 100% | 10% | 50% | 0% | 0% | 0% | 30% | pest or weed control at 63 g/ha [11]: 90%; pest or weed control at 500 g/ha [11]: 100%; pest or weed control at 63 g/ha [12]: 90%; pest or weed control at 500 g/ha [12]: 100%; pest or weed control at 63 g/ha [13]: 25%; pest or weed control at 500 g/ha [13]: 50%; pest or weed control at 63 g/ha [14]: 95%; pest or weed control at 500 g/ha [14]: 100%; pest or weed control at 63 g/ha [15]: 0%; pest or weed control at 500 g/ha [15]: 10%
2 | Nn1c(C(F)(F)F)cc(=O)n(-c2cc(Oc3ccccc3C(F)(F)F)c(Cl)cc2F)c1=O [Compound 9-24, 1-amino-3-[4-chloro-2-fluoro-5-(2-trifluoromethylphenoxy)phenyl]-6-trifluoromethyl-1,2,3,4-tetrahydropyrimidine-2,4-dione] | 100% | 100% | 30% | 0% | 30% | 90% | 99% | 100% | 100% | 100% | 30% | 30% | 100% | 100% | 30% | 80% | 40% | 75% | 30% | 70% | pest or weed control at 63 g/ha [11]: 100%; pest or weed control at 500 g/ha [11]: 100%; pest or weed control at 63 g/ha [12]: 100%; pest or weed control at 500 g/ha [12]: 100%; pest or weed control at 63 g/ha [13]: 70%; pest or weed control at 500 g/ha [13]: 95%; pest or weed control at 63 g/ha [14]: 100%; pest or weed control at 500 g/ha [14]: 100%; pest or weed control at 63 g/ha [15]: 30%; pest or weed control at 500 g/ha [15]: 90%
3 | Nn1c(C(F)(F)F)cc(=O)n(-c2cc(Oc3nc(F)c(F)cc3F)c(Cl)cc2F)c1=O [Compound 9-6, 1-Amino-3-[4-chloro-2-fluoro-5-(3,5,6-trifluoro-2-pyridyloxy)phenyl]-6-trifluoromethyl-1,2,3,4-tetrahydropyrimidine-2,4-dione] | 100% | 100% | 90% | 100% | 90% | 90% | 100% | 100% | 100% | 100% | 90% | 95% | 100% | 100% | 40% | 100% | 90% | 100% | 100% | 100% | pest or weed control at 63 g/ha [11]: 100%; pest or weed control at 500 g/ha [11]: 100%; pest or weed control at 63 g/ha [12]: 100%; pest or weed control at 500 g/ha [12]: 100%; pest or weed control at 63 g/ha [13]: 20%; pest or weed control at 500 g/ha [13]: 100%; pest or weed control at 63 g/ha [14]: 100%; pest or weed control at 500 g/ha [14]: 100%; pest or weed control at 63 g/ha [15]: 90%; pest or weed control at 500 g/ha [15]: 100%
4 | N#Cc1ccc(Oc2cc(-n3c(=O)cc(C(F)(F)F)n(N)c3=O)c(F)cc2Cl)nc1 [Compound 9-10, 1-Amino-3-[4-chloro-2-fluoro-5-(5-cyano-2-pyridyloxy)phenyl]-6-trifluoromethyl-1,2,3,4-tetrahydropyrimidine-2,4-dione] | 100% | 100% | 100% | 100% | 95% | 100% | 100% | 100% | 100% | 100% | 100% | 100% | 100% | 100% | 40% | 50% | 10% | 20% | 60% | 95% | pest or weed control at 63 g/ha [11]: 100%; pest or weed control at 500 g/ha [11]: 80%; pest or weed control at 63 g/ha [12]: 100%; pest or weed control at 500 g/ha [12]: 100%; pest or weed control at 63 g/ha [13]: 20%; pest or weed control at 500 g/ha [13]: 70%; pest or weed control at 63 g/ha [14]: 100%; pest or weed control at 500 g/ha [14]: 100%; pest or weed control at 63 g/ha [15]: 20%; pest or weed control at 500 g/ha [15]: 95%
